Numbered stars: 1 amine (or outer) side, 2 acyl side, 3 side chain; on linkers, the order of the positions; unused ones are H or OH. Bridge positions count the residues as written; N and C are the ends. Square brackets hold non-standard residues; d marks the D form. Side chains are listed from the residue outwards. Peptide text beside a SMILES is read from it. * marks the point of attachment. NH(1-deoxy-D-glucityl) = OC[C@@H](O)[C@@H](O)[C@H](O)[C@@H](O)CN*; Trp(1-Me,7-Cl) = Cn1cc(C[C@H](N)C(=O)O)c2cccc(Cl)c21; Ala(2-NH2-4-pyridyl) = Nc1cc(C[C@H](N)C(=O)O)ccn1; dPhe(3-CONH2) = NC(=O)c1cccc(C[C@@H](N)C(=O)O)c1; X3 = CN([C@@H](Cc1ccnc(N)c1)C(=O)[*:2])[*:1]; Piperazinyl(4-CH2COOH) = O=C(O)CN1CCN(*)CC1; Trp(1-Me) = Cn1cc(C[C@H](N)C(=O)O)c2ccccc21; X5 = Cc1cccc(C[C@H](N[*:1])C(=O)[*:2])c1C; NMe3Pal = CN[C@@H](Cc1cccnc1)C(=O)O; NMeF = CN[C@@H](Cc1ccccc1)C(=O)O; hCit = NC(=O)NCCCC[C@H](N)C(=O)O; Gly(cBu) = N[C@H](C(=O)O)C1CCC1; NMeE = CN[C@@H](CCC(=O)O)C(=O)O; Aad = N[C@@H](CCCC(=O)O)C(=O)O; NMeN = CN[C@@H](CC(N)=O)C(=O)O; Chg = N[C@H](C(=O)O)C1CCCCC1; CO = O=C([*:1])[*:2]; βAla = NCCC(=O)O

As a reminder, the Kd is the equilibrium constant for the complex coming apart.

The assay addresses T1, Recombinant Human EphA2 Fc Protein (Homo sapiens, UniProt P29317).
T1 construct: purchased Elabscience
Description: SPR interaction analysis (Biacore T200), kinetics of peptides against EphA2. It counts as binding. To be noted: Recombinant Human EphA2 Fc Protein captured by Human Antibody Capture kit; single-cycle kinetics; 25° C.; HBS-P+ buffer with 1% DMSO. The method, boiled down: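 KD derived from ka and kd, fitted on baseline-subtracted sensorgrams from single-cycle kinetics of five peptide dilutions. Running buffer: HBS-P+ (pH 7.4) plus 1% DMSO, 25° C, Biacore T200. Recombinant human EphA2-Fc held on an antibody capture surface.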
A general note: In SPR one partner is held on a chip, and binding of the other changes the refractive index at the surface.
On to `CC(C)C[C@@H]1NC(=O)[C@H](CC(N)=O)NC(=O)[C@H](Cc2cccnc2)N(C)C(=O)[C@@H](Cc2cccc(C(N)=O)c2)NC(=O)CSC[C@@H](C(N)=O)NC(=O)[C@H](CC(N)=O)NC(=O)[C@H]([C@@H](C)O)NC(=O)[C@H](Cc2cn(C)c3ccccc23)NC(=O)[C@H](CCC(=O)NC[C@H](O)[C@@H](O)[C@H](O)[C@H](O)CO)NC(=O)[C@H](Cc2cn(C)c3c(Cl)cccc23)NC(=O)[C@H](Cc2ccccc2)N(C)C(=O)[C@H](CC(N)=O)NC1=O` [PDC_EphA2-00026424, df3CON-Me3Py-N-L-N-Me3Py-W1Me7Cl-Qglucamine-W1Me-T-N-C-NH2] ({CH2CO}-[dPhe(3-CONH2)][NMe3Pal]NLN[NMeF][Trp(1-Me,7-Cl)]E(NH(1-deoxy-D-glucityl))[Trp(1-Me)]TNC-NH2; thioether N-12), for which the Kd was less than 1 nM.

As to `CNC(=O)C[C@@H]1NC(=O)[C@H](C2CCCCC2)NC(=O)[C@H](CC(N)=O)NC(=O)[C@H](Cc2cccnc2)N(C)C(=O)[C@@H](C)NC(=O)CSC[C@@H](C(N)=O)NC(=O)[C@H](CCCC(N)=O)NC(=O)[C@H]([C@@H](C)O)NC(=O)[C@H](Cc2cn(C)c3ccccc23)NC(=O)[C@H](CCCCNC(=O)N2CCN(CC(=O)O)CC2)NC(=O)[C@H](Cc2cn(C)c3ccccc23)NC(=O)[C@H](Cc2ccccc2)N(C)C1=O` [PDC_EphA2-00018536, da-Me3Py-N-Chg-Nmm-MeF-W1Me-KCOpipzaa-W1Me-T-Hgn-C-NH2] ({CH2CO}-[dA][NMe3Pal]N[Chg]D(NHMe)[NMeF][Trp(1-Me)]K([CO-Piperazinyl(4-CH2COOH)])[Trp(1-Me)]T[Aad](NH2)C-NH2; thioether N-12), the Kd was less than 1 nM.

Regarding `CN1C(=O)[C@H](CCC(=O)NC[C@H](O)[C@@H](O)[C@H](O)[C@H](O)CO)NC(=O)[C@H](C2CCC2)NC(=O)[C@H](CC(N)=O)NC(=O)[C@H](Cc2cccnc2)N(C)C(=O)[C@@H](Cc2cccc(C(N)=O)c2)NC(=O)CSC[C@@H](C(N)=O)NC(=O)[C@H](Cc2cn(C)c3ccccc23)NC(=O)[C@H](CCCCNC(N)=O)NC(=O)[C@H](Cc2cn(C)c3c(Cl)cccc23)NC(=O)[C@@H]1CCC(=O)O` [PDC_EphA2-00026607, df3CON-Me3Py-N-Cbg-Qglucamine-MeE-W1Me7Cl-Hcit-W1Me-C-NH2] ({CH2CO}-[dPhe(3-CONH2)][NMe3Pal]N[Gly(cBu)]E(NH(1-deoxy-D-glucityl))[NMeE][Trp(1-Me,7-Cl)][hCit][Trp(1-Me)]C-NH2; thioether N-10), the Kd is less than 1 nM.

Take `CC(=O)NCCCC[C@H](NC(=O)[C@@H]1CSCC(=O)N[C@@H](Cc2ccccc2)C(=O)N[C@@H](Cc2ccnc(N)c2)C(=O)N[C@@H](CC(C)C)C(=O)N[C@@H](CCCCNC(N)=O)C(=O)N[C@@H](Cc2cn(C)c3ccccc23)C(=O)N(C)[C@@H](Cc2ccccc2)C(=O)N[C@@H](Cc2cn(C)c3ccccc23)C(=O)N1)C(N)=O` [PDC_EphA2-00022602, F-4Py2NH2-L-Hcit-W1Me-MeF-W1Me-C-KAc-NH2] ({CH2CO}-F[Ala(2-NH2-4-pyridyl)]L[hCit][Trp(1-Me)][NMeF][Trp(1-Me)]CK(Ac)-NH2; thioether N-8): the Kd was in the range of 100 to 400 nM.

In the case of `CC(=O)NCCCC[C@@H](NC(=O)CCNC(=O)[C@@H]1CSCC(=O)N[C@H](C)C(=O)N(C)[C@@H](Cc2cccnc2)C(=O)N[C@@H](CC(N)=O)C(=O)N[C@@H](CC(C)C)C(=O)N[C@@H](CCCCNC(=O)N2CCN(CC(=O)O)CC2)C(=O)N(C)[C@@H](Cc2ccccc2)C(=O)N[C@@H](Cc2cn(C)c3ccccc23)C(=O)N[C@@H](CCCCNC(=O)N2CCN(CC(=O)O)CC2)C(=O)N[C@@H](Cc2cn(C)c3ccccc23)C(=O)N[C@@H]([C@@H](C)O)C(=O)N[C@@H](CCCC(N)=O)C(=O)N1)C(N)=O` [PDC_EphA2-00008092, da-Me3Py-N-L-KCOpipzaa-MeF-W1Me-KCOpipzaa-W1Me-T-Hgn-C-bA-dkAc-NH2] ({CH2CO}-[dA][NMe3Pal]NLK([CO-Piperazinyl(4-CH2COOH)])[NMeF][Trp(1-Me)]K([CO-Piperazinyl(4-CH2COOH)])[Trp(1-Me)]T[Aad](NH2)C[βAla][dK](Ac)-NH2; thioether N-12), the Kd is less than 1 nM.

For `CC(C)C[C@@H]1NC(=O)[C@H](CC(N)=O)NC(=O)[C@H](Cc2ccccc2)N(C)C(=O)[C@@H](Cc2cccc(C(N)=O)c2)NC(=O)CSC[C@@H](C(N)=O)NC(=O)[C@H](CCCC(N)=O)NC(=O)[C@H]([C@@H](C)O)NC(=O)[C@H](Cc2cn(C)c3ccccc23)NC(=O)[C@H](C(C)C)NC(=O)[C@H](Cc2cn(C)c3ccccc23)NC(=O)[C@H](CC(N)=O)N(C)C(=O)[C@H](CCCC(N)=O)NC1=O` [PDC_EphA2-00019423, df3CON-MeF-N-L-Hgn-MeN-W1Me-V-W1Me-T-Hgn-C-NH2] ({CH2CO}-[dPhe(3-CONH2)][NMeF]NL[Aad](NH2)[NMeN][Trp(1-Me)]V[Trp(1-Me)]T[Aad](NH2)C-NH2; thioether N-12), the Kd is less than 1 nM.

Take `C[C@@H](O)[C@@H]1NC(=O)[C@H](Cc2cn(C)c3ccccc23)NC(=O)[C@H](CCCCNC(=O)N2CCN(CC(=O)O)CC2)NC(=O)[C@H](Cc2cn(C)c3c(Cl)cccc23)NC(=O)[C@H](Cc2ccccc2)N(C)C(=O)[C@H](CCCC(N)=O)NC(=O)[C@H](C2CCC2)NC(=O)[C@H](CC(N)=O)NC(=O)[C@H](Cc2cccnc2)N(C)C(=O)[C@@H](Cc2cccc(C(N)=O)c2)NC(=O)CSC[C@@H](C(N)=O)NC(=O)[C@H](CCCC(N)=O)NC1=O` [PDC_EphA2-00019434, df3CON-Me3Py-N-Cbg-Hgn-MeF-W1Me7Cl-KCOpipzaa-W1Me-T-Hgn-C-NH2] ({CH2CO}-[dPhe(3-CONH2)][NMe3Pal]N[Gly(cBu)][Aad](NH2)[NMeF][Trp(1-Me,7-Cl)]K([CO-Piperazinyl(4-CH2COOH)])[Trp(1-Me)]T[Aad](NH2)C-NH2; thioether N-12): the Kd was less than 1 nM.

On to `CNC(=O)C[C@@H]1NC(=O)[C@H]([C@@H](C)O)NC(=O)[C@H](Cc2cn(C)c3ccccc23)NC(=O)[C@H](CCCCNC(=O)N2CCN(CC(=O)O)CC2)NC(=O)[C@H](Cc2cn(C)c3ccccc23)NC(=O)[C@H](CCC(=O)O)N(C)C(=O)[C@H](CCCC(N)=O)NC(=O)[C@H](CC(C)C)NC(=O)[C@H](CC(N)=O)NC(=O)[C@H](Cc2cccnc2)N(C)C(=O)[C@@H](C)NC(=O)CSC[C@@H](C(N)=O)NC1=O` [PDC_EphA2-00018533, da-Me3Py-N-L-Hgn-MeE-W1Me-KCOpipzaa-W1Me-T-Nmm-C-NH2] ({CH2CO}-[dA][NMe3Pal]NL[Aad](NH2)[NMeE][Trp(1-Me)]K([CO-Piperazinyl(4-CH2COOH)])[Trp(1-Me)]TD(NHMe)C-NH2; thioether N-12), for which the Kd is less than 1 nM.

As to `CN1C(=O)[C@H](CCC(=O)NC[C@H](O)[C@@H](O)[C@H](O)[C@H](O)CO)NC(=O)[C@H](C2CCC2)NC(=O)[C@H](CC(N)=O)NC(=O)[C@H](Cc2ccnc(N)c2)N(C)C(=O)[C@@H](Cc2cccc(C(N)=O)c2)NC(=O)CSC[C@@H](C(N)=O)NC(=O)[C@H](Cc2cn(C)c3ccccc23)NC(=O)[C@H](CCCCNC(=O)N2CCN(CC(=O)O)CC2)NC(=O)[C@H](Cc2cn(C)c3c(Cl)cccc23)NC(=O)[C@@H]1Cc1cccnc1` [PDC_EphA2-00026605, df3CON-Me4Py2NH2-N-Cbg-Qglucamine-Me3Py-W1Me7Cl-KCOpipzaa-W1Me-C-NH2] ({CH2CO}-[dPhe(3-CONH2)][X3]N[Gly(cBu)]E(NH(1-deoxy-D-glucityl))[NMe3Pal][Trp(1-Me,7-Cl)]K([CO-Piperazinyl(4-CH2COOH)])[Trp(1-Me)]C-NH2; thioether N-10), the Kd was in the range of 1 to 10 nM.

For the molecule `Cc1cccc(C[C@@H]2NC(=O)[C@H](CCCCNC(=O)N3CCN(CC(=O)O)CC3)NC(=O)[C@H](Cc3cn(C)c4ccccc34)NC(=O)[C@H](Cc3ccccc3)N(C)C(=O)[C@H](CCCC(N)=O)NC(=O)[C@H](C3CCC3)NC(=O)[C@H](CC(N)=O)NC(=O)[C@H](Cc3cccnc3)N(C)C(=O)[C@@H](C)NC(=O)CSC[C@@H](C(N)=O)NC(=O)[C@H](CCCC(N)=O)NC(=O)[C@H]([C@@H](C)O)NC2=O)c1C` [PDC_EphA2-00010003, da-Me3Py-N-Cbg-Hgn-MeF-W1Me-KCOpipzaa-F23dMe-T-Hgn-C-NH2] ({CH2CO}-[dA][NMe3Pal]N[Gly(cBu)][Aad](NH2)[NMeF][Trp(1-Me)]K([CO-Piperazinyl(4-CH2COOH)])[X5]T[Aad](NH2)C-NH2; thioether N-12), the Kd was less than 1 nM.

With `C[C@H]1NC(=O)CSC[C@@H](C(N)=O)NC(=O)[C@H](CCCC(N)=O)NC(=O)[C@H]([C@@H](C)O)NC(=O)[C@H](Cc2cn(C)c3ccccc23)NC(=O)[C@H](CCC(=O)NC[C@H](O)[C@@H](O)[C@H](O)[C@H](O)CO)NC(=O)[C@H](Cc2cn(C)c3ccccc23)NC(=O)[C@H](Cc2cccnc2)N(C)C(=O)[C@H](CCCC(N)=O)NC(=O)[C@H](C2CCC2)NC(=O)[C@H](CC(N)=O)NC(=O)[C@H](Cc2ccccc2)N(C)C1=O` [PDC_EphA2-00013704, da-MeF-N-Cbg-Hgn-Me3Py-W1Me-Qglucamine-W1Me-T-Hgn-C-NH2] ({CH2CO}-[dA][NMeF]N[Gly(cBu)][Aad](NH2)[NMe3Pal][Trp(1-Me)]E(NH(1-deoxy-D-glucityl))[Trp(1-Me)]T[Aad](NH2)C-NH2; thioether N-12), the Kd is less than 1 nM.

`CC(C)C[C@@H]1NC(=O)[C@H](CC(N)=O)NC(=O)[C@H](Cc2c[nH]cn2)NC(=O)[C@H](Cc2ccccc2)NC(=O)CSC[C@@H](C(=O)NCC(N)=O)NC(=O)[C@H](Cc2cn(C)c3ccccc23)NC(=O)[C@H](CCCCNC(N)=O)NC(=O)[C@H](Cc2cn(C)c3ccccc23)NC(=O)[C@H](Cc2ccccc2)N(C)C(=O)[C@H](CO)NC1=O` [PDC_EphA2-00022606, F-H-N-L-S-MeF-W1Me-Hcit-W1Me-C-G-NH2] ({CH2CO}-FHNLS[NMeF][Trp(1-Me)][hCit][Trp(1-Me)]CG-NH2; thioether N-10): the Kd fell in the range of 10 to 100 nM.

For the origin of these results see US20260098061A1, “EPHA2-BINDING PENDING PEPTIDE AND COMPOSITION COMPRISING SAME” (PeptiDream Inc., priority 2022, published 2026).
